Results as given in patent publication US20180273531A1, “PYRIMIDINE COMPOUND AND MEDICAL USE THEREOF” (Japan Tobacco Inc., priority 2004, published 2018).

Legend:
c-Raf and MEK2 = c-Raf and MEK2 (Homo sapiens, UniProt P36507); experiment: MEK enzyme inhibitory activity, c-Raf and MEK2 system; format: biochemical; settings: 30° C., 20 min, [γ-32P]-ATP; average of two or three tests
Experimental: (§1) To an evaluation system where Raf (B-Raf or c-Raf) and MEK (MEK1 or MEK2) were mixed, or MEK (MEK1 or MEK2) and ERK2 were mixed was added a test substance dissolved in DMSO, and an ATP solution containing [γ-32P]-ATP was added to start the enzyme reaction. After reacting at 30° C. for 20 min, the reaction mixture was subjected to SDS-PAGE (sodium dodecylsulfate-polyacrylamide gel electrophoresis) and radioactivity of phosphorylated MEK or ERK2 was measured by Bio Imaging Analyzer (BAS2000, Fuji photo film).

B-Raf and MEK1 = B-Raf and MEK1 (Homo sapiens, UniProt Q02750); experiment: MEK enzyme inhibitory activity, B-Raf and MEK1 system; format: biochemical; settings: 30° C., 20 min, [γ-32P]-ATP; average of two or three tests
B-Raf and MEK1, sequence (Q02750 whole entry): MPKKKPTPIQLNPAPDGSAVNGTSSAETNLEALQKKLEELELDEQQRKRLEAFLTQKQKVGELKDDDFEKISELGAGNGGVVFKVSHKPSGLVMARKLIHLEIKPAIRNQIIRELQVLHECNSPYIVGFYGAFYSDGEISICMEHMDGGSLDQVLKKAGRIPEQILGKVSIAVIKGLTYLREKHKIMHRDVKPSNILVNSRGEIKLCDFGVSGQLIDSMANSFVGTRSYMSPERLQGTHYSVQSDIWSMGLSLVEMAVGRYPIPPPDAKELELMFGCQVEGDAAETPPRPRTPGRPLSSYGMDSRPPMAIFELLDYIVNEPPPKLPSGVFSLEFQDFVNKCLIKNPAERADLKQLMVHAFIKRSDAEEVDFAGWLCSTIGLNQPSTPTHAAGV
Experimental: as §1

[1] = test system: Renal cancer cell line ACHN cell; experiment: Growth inhibitory effect against cancer cell lines (3H-thymidine uptake), ACHN; format: cell-based; settings: Homo sapiens, ACHN
In short: (§2)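 IC50 = concentration reducing ^3H-thymidine incorporation to 50% of DMSO control, measured in triplicate. Compound added 24 hrs after plating (1.0×10^4 cells/well); label (0.25 μCi/well) given after 18 hrs of treatment, followed by 6 hrs further culture and scintillation counting of harvested cells.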

p27 protein = p27 protein induction test (Western blotting); format: cell-based; settings: test substance (0.1 1M), 24 hrs, ACHN cells or HT-29 cells, compared to DMSO, n=2
In short: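 p27 level taken as anti-p27 band density by densitometry, mean of n=2, with DMSO as control. Samples loaded at amount equivalent to 10 μg BSA. Cells were ACHN or HT-29, exposed 24 h to […] test substance after 24 h pre-culture.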

[2] = test system: colorectal cancer cell line HT-29 cells; experiment: Growth inhibitory effect against cancer cell lines (3H-thymidine uptake), HT-29; format: cell-based; settings: Homo sapiens, HT-29, inhibition of 3H-thymidine uptake; test substance 18 hrs, then 3H-thymidine 6 hrs; triplicate
In short: as §2

MEK2 and ERK2 = MEK2 and ERK2 (Homo sapiens, UniProt P36507); experiment: MEK enzyme inhibitory activity, MEK2 and ERK2 system; format: biochemical; settings: 30° C., 20 min, [γ-32P]-ATP; average of two or three tests
MEK2 and ERK2, sequence (P36507 whole entry): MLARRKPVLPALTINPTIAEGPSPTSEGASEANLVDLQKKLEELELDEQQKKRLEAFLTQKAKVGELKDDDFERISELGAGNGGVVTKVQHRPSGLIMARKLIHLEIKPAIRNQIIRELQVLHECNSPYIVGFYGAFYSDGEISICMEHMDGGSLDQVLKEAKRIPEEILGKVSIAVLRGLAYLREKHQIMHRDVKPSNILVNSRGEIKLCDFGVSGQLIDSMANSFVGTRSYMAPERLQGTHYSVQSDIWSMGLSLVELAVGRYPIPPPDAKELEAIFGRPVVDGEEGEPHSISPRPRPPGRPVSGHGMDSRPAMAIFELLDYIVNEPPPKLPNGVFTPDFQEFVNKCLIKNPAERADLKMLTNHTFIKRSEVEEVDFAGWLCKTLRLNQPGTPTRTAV
Experimental: as §1

HT-29 cells = experiment: Evaluation on the nude-mouse xenograft model; format: in vivo, mouse (Balb/c-nu/nu); settings: HT-29, po, 240 h, 30 mg/kg orally twice a day for 10 days, tumor volume, treated vs vehicle group, n=6-8, read-out: T/C(%)
Experimental: HT-29 cells (5.0×10^6 cells/100 μL/head, suspended in HBSS (Hanks' solution)) in the logarithmic growth phase were implanted in a mouse (Balb/c-nu/nu) at the right lateral abdomen under ether anesthesia. After 5 days of implantation, the long diameter and short diameter of the tumor were measured, and the mice were divided into groups such that each group has an equivalent average tumor volume. For grouping, a grouping soft (general grouping system (Visions) was used. From the next day of the grouping, a test substance suspended in 0.5% MC (methyl cellulose) was repeatedly orally administered twice a day for 10 days (30 mg/kg). The tumor volume was measured twice a week and used as an index of antitumor activity. As a control, 0.5% MC was used and the test was performed with n=6-8.
The index (T/C (%)) of the antitumor activity was calculated according to the following formula.
T/C(%)=(The average tumor volume of the group treated with a test substance)/(The average tumor volume of the Vehicle group)×100
The tumor volume was calculated according to the following formula.
Tumor volume(mm^3)=L×W×W/2
(L: long diameter (mm) of tumor, W: short diameter (mm) of tumor)

MEK1 and ERK2 = MEK1 and ERK2 (Homo sapiens, UniProt Q02750); experiment: MEK enzyme inhibitory activity, MEK1 and ERK2 system; format: biochemical; settings: 30° C., 20 min, [γ-32P]-ATP; average of two or three tests
MEK1 and ERK2, sequence (Q02750 whole entry): as the sequence (Q02750 whole entry) above
Experimental: as §1

B-Raf and MEK2 = B-Raf and MEK2 (Homo sapiens, UniProt P36507); experiment: MEK enzyme inhibitory activity, B-Raf and MEK2 system; format: biochemical; settings: 30° C., 20 min, [γ-32P]-ATP; average of two or three tests
B-Raf and MEK2, sequence (P36507 whole entry): as the sequence (P36507 whole entry) above
Experimental: as §1

TNF-α or IL-6 = experiment: Evaluation on inflammatory cytokine production (LPS-stimulated PBMC); format: cell-based; settings: human PBMC stimulated with LPS
p15 protein = experiment: Evaluation of p15 induction activity (Western blotting); format: cell-based; settings: test substance 0.1 μM, 24 hrs, ACHN cells or HT-29 cells, compared to DMSO, n=2
In short: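 p15 protein quantified by densitometry of anti-p15 Western blots (10 μg protein per lane, mean of n=2). Samples came from HT-29 or ACHN cells given 0.1 μM compound for 24 h after 24 h plating, with DMSO as control.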

[3] = test system: ACHN cells or HT-29 cells; experiment: Cell cycle analysis (flow cytometry, CycleTEST PLUS); format: cell-based; settings: test substance less than 10 μM, 24 hrs, compared to DMSO, n=2, read-out: CELL RATIO OF G0/G1 PHASE
Experimental: ACHN cells or HT-29 cells were cultured in a 6 well plate at 2.5×10^5 cells/1.8 mL/well for 24 hrs, then a test substance (less than 10 μM) dissolved in DMSO was added. After 24 hrs, cells were detached using trypsin-EDTA and the DNA content of single cell was analyzed by flow cytometry method using a CycleTEST PLUS (BECKTON DICKINSON) kit, and the proportion of the cells in the G0/G1 phase·S phase·G2/M phase was calculated. As a control, DMSO was used and the test was performed with n=2.

[4] = test system: mouse (DBA/1) collagen arthritis; settings: 17 days after boost, 1 mg/kg oral once a day for 38 days; medium group 2.2; p<0.001; n=16

c-Raf and MEK2, sequence (P36507 whole entry): as above

| IC50 of various enzyme reaction system, c-Raf MEK2 (c-Raf and MEK2) | IC50 of various enzyme reaction system, B-Raf MEK1 (B-Raf and MEK1) | IC50 [1] | IC50 [2] | IC50 of various enzyme reaction system, MEK2 ERK2 (MEK2 and ERK2) | IC50 of various enzyme reaction system, MEK1 ERK2 (MEK1 and ERK2) | IC50 of various enzyme reaction system, B-Raf MEK2 (B-Raf and MEK2) | Compound | fold induction at 0.1 µM (p27 protein) | response vs control in vivo at 30 mg/kg (HT-29 cells) | production of TNF-α or IL-6 (TNF-α or IL-6) | fold induction at 0.1 µM (p15 protein) | fold induction at up to 10 µM [3] | arthritis score [4] |
| --- | --- | --- | --- | --- | --- | --- | --- | --- | --- | --- | --- | --- | --- |
| 7.8 nM | 6 nM | < 10 nM | < 10 nM | 1600 nM | 1300 nM | 18.8 nM | Cn1c(=O)cc(Nc2ccc(I)cc2F)c2c(=O)n(C3CC3)c(=O)n(-c3cccc(NS(C)(=O)=O)c3)c21 [Example 1-257] | ≥ 1.5 | 26% | – | – | – | – |
| – | – | < 10 nM | < 10 nM | – | – | – | CC(=O)Nc1cccc(-n2c(=O)n(C3CC3)c(=O)c3c(Nc4ccc(I)cc4F)n(C)c(=O)c(C)c32)c1 [Example 4-1, N-{3-[3-cyclopropyl-5-(2-fluoro-4-iodophenylamino)-6,8-dimethyl-2,4,7-trioxo-3,4,6,7-tetrahydro-2H-pyrido[4,3-d]pyrimidin-1-yl]-phenyl}-acetamide] | – | 3% | suppressed | – | – | – |
| – | – | < 10 nM | < 10 nM | – | – | – | Cc1c(=O)n(C)c(Nc2ccc(I)cc2F)c2c(=O)n(C)c(=O)n(-c3cccc(NS(C)(=O)=O)c3)c12 [Example 4-16, N-{3-[5-(2-fluoro-4-iodophenylamino)-3,6,8-trimethyl-2,4,7-trioxo-3,4,6,7-tetrahydro-2H-pyrido[4,3-d]pyrimidin-1-yl]phenyl}methanesulfonamide] | ≥ 1.5 | 10% | suppressed | ≥ 1.5 | ≥ 1.2 | – |
| – | – | – | – | – | – | – | CC(=O)Nc1cccc(-n2c(=O)n(C3CC3)c(=O)c3c(Nc4ccc(I)cc4F)n(C)c(=O)c(C)c32)c1.CC(=O)O [N-{3-[3-Cyclopropyl-5-(2-fluoro-4-iodo-phenylamino)-6,8-dimethyl-2,4,7-trioxo-3,4,6,7-tetrahydro-2H-pyrido[4,3-d]pyrimidin-1-yl]-phenyl}-acetamide Acetic Acid Solvate] | – | – | – | – | – | 0.57 |
